From the supplement of paper PMC9663587

Key:
Paclitaxel = compound: CC(=O)O[C@H]1C(=O)[C@@]2(C)[C@H]([C@H](OC(=O)c3ccccc3)[C@]3(O)C[C@H](OC(=O)[C@H](O)[C@@H](NC(=O)c4ccccc4)c4ccccc4)C(C)=C1C3(C)C)[C@]1(OC(C)=O)CO[C@@H]1C[C@@H]2O [Paclitaxel]
ABT-737 = compound: CN(C)CC[C@H](CSc1ccccc1)Nc1ccc(S(=O)(=O)NC(=O)c2ccc(N3CCN(Cc4ccccc4-c4ccc(Cl)cc4)CC3)cc2)cc1[N+](=O)[O-] [ABT-737]
Luminespib/NVP-AUY922 = compound: CCNC(=O)c1noc(-c2cc(C(C)C)c(O)cc2O)c1-c1ccc(CN2CCOCC2)cc1 [Luminespib/NVP-AUY922]
BSJ-01-175 = compound: CN(C)C/C=C/C(=O)Nc1ccc(O[C@@H]2CCC[C@@H](Nc3ncc(Cl)c(-c4c[nH]c5ccccc45)n3)C2)cc1 [BSJ-01-175]
Flavopiridol [1] = compound: T1, CN1CC[C@H](c2c(O)cc(O)c3c(=O)cc(-c4ccccc4Cl)oc23)[C@H](O)C1 [Flavopiridol]
Olaparib/AZD2281 = compound: O=C(c1cc(Cc2n[nH]c(=O)c3ccccc23)ccc1F)N1CCN(C(=O)C2CC2)CC1 [Olaparib/AZD2281]
Doxorubicin = compound: COc1cccc2c1C(=O)c1c(O)c3c(c(O)c1C2=O)C[C@@](O)(C(=O)CO)C[C@@H]3O[C@H]1C[C@H](N)[C@H](O)[C@H](C)O1 [Doxorubicin]
Ipatasertib/GDC0068 = compound: CC(C)NC[C@@H](C(=O)N1CCN(c2ncnc3c2[C@H](C)C[C@H]3O)CC1)c1ccc(Cl)cc1 [Ipatasertib/GDC0068]
Taselisib/GDC0032 = compound: Cc1nc(-c2cn3c(n2)-c2ccc(-c4cnn(C(C)(C)C(N)=O)c4)cc2OCC3)n(C(C)C)n1 [Taselisib/GDC0032]
BSJ-03-123 = compound: CC(=O)c1c(C)c2cnc(Nc3ccc(N4CCN(CCOCCOCCOCCNC(=O)COc5cccc6c5C(=O)N(C5CCC(=O)NC5=O)C6=O)CC4)cn3)nc2n(C2CCCC2)c1=O [BSJ-03-123]; experiment: GR value, 72 h; higher = faster growth (1 = untreated, <0 = killing);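 note: breast cancer and non-malignant breast epithelial lines, nine half-log doses, viable cells counted by Hoechst and LIVE/DEAD dye imaging versus time-zero plates and DMSO controls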
YKL-5-124 = compound: C=CC(=O)Nc1ccc(C(=O)Nc2[nH]nc3c2CN(C(=O)N[C@H](CN(C)C)c2ccccc2)C3(C)C)cc1 [YKL-5-124]; experiment: as above
[2] = compound: CC(=O)c1c(C)c2cnc(Nc3ccc(N4CCNCC4)cn3)nc2n(C2CCCC2)c1=O; experiment: as above
THZ531 = compound: CN(C)C/C=C/C(=O)Nc1ccc(C(=O)N2CCC[C@@H](Nc3ncc(Cl)c(-c4c[nH]c5ccccc45)n3)C2)cc1 [THZ531]; experiment: as above
Flavopiridol [3] = compound: T1, Flavopiridol; experiment: as above
[4] = compound: CCN1CCN(Cc2ccc(Nc3ncc(F)c(-c4cc(F)c5nc(C)n(C(C)C)c5c4)n3)nc2)CC1; experiment: as above
LEE011/Ribociclib = compound: CN(C)C(=O)c1cc2cnc(Nc3ccc(N4CCNCC4)cn3)nc2n1C1CCCC1 [LEE011/Ribociclib]; experiment: as above
[5] = compound: CCc1cnn2c(NCc3ccc[n+]([O-])c3)cc(N3CCCC[C@H]3CCO)nc12; experiment: as above
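Throughout, for GR50, 72 h: breast cancer and non-malignant breast epithelial cell lines, Deep Dye Drop or Dye Drop imaging, nine half-log doses, GR normalized to time-zero plates and DMSO-only controls.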

## UACC893
Paclitaxel
  GR50, 72 h: 0.00216 µM
ABT-737
  GR50, 72 h: 9.97 µM
Luminespib/NVP-AUY922
  GR50, 72 h: 0.00468 µM
BSJ-01-175
  GR50, 72 h: 0.0165 µM
Flavopiridol [1]
  GR50, 72 h: 0.117 µM
Olaparib/AZD2281
  GR50, 72 h: > 10 µM
Doxorubicin
  GR50, 72 h: 0.0106 µM
Ipatasertib/GDC0068
  GR50, 72 h: 0.223 µM
Taselisib/GDC0032
  GR50, 72 h: 0.00346 µM
BSJ-03-123; 0.001 µM
  GR value: 0.933 GR
BSJ-03-123; 0.003162 µM
  GR value: 0.792 GR
BSJ-03-123; 0.01 µM
  GR value: 0.726 GR
BSJ-03-123; 0.03162 µM
  GR value: 0.878 GR
BSJ-03-123; 0.1 µM
  GR value: 0.644 GR
BSJ-03-123; 0.3162 µM
  GR value: 0.502 GR
BSJ-03-123; 1 µM
  GR value: 0.538 GR
BSJ-03-123; 3.162 µM
  GR value: 0.498 GR
BSJ-03-123; 10 µM
  GR value: 0.283 GR
YKL-5-124; 0.001 µM
  GR value: 0.472 GR
YKL-5-124; 0.003162 µM
  GR value: 0.473 GR
YKL-5-124; 0.01 µM
  GR value: 0.363 GR
YKL-5-124; 0.03162 µM
  GR value: 0.342 GR
YKL-5-124; 0.1 µM
  GR value: 0.215 GR
YKL-5-124; 0.3162 µM
  GR value: 0.246 GR
YKL-5-124; 1 µM
  GR value: 0.219 GR
YKL-5-124; 3.162 µM
  GR value: 0.119 GR
YKL-5-124; 10 µM
  GR value: -0.629 GR
[2]; 0.0003162 µM
  GR value: 0.92 GR
[2]; 0.001 µM
  GR value: 0.914 GR
[2]; 0.003162 µM
  GR value: 0.79 GR
[2]; 0.01 µM
  GR value: 0.671 GR
[2]; 0.03162 µM
  GR value: 0.422 GR
[2]; 0.1 µM
  GR value: 0.406 GR
[2]; 0.3162 µM
  GR value: 0.366 GR
[2]; 1 µM
  GR value: 0.358 GR
[2]; 3.162 µM
  GR value: 0.355 GR
THZ531; 0.0001 µM
  GR value: 1.05 GR
THZ531; 0.0003162 µM
  GR value: 1.05 GR
THZ531; 0.001 µM
  GR value: 0.907 GR
THZ531; 0.003162 µM
  GR value: 1.06 GR
THZ531; 0.01 µM
  GR value: 1.08 GR
THZ531; 0.03162 µM
  GR value: 0.743 GR
THZ531; 0.1 µM
  GR value: -0.298 GR
THZ531; 0.3162 µM
  GR value: -0.396 GR
THZ531; 1 µM
  GR value: -0.421 GR
Flavopiridol [3]; 0.0001 µM
  GR value: 1.02 GR
Flavopiridol [3]; 0.0003162 µM
  GR value: 0.977 GR
Flavopiridol [3]; 0.001 µM
  GR value: 0.945 GR
Flavopiridol [3]; 0.003162 µM
  GR value: 0.821 GR
Flavopiridol [3]; 0.01 µM
  GR value: 0.866 GR
Flavopiridol [3]; 0.03162 µM
  GR value: 0.822 GR
Flavopiridol [3]; 0.1 µM
  GR value: 0.609 GR
Flavopiridol [3]; 0.3162 µM
  GR value: 0.0303 GR
Flavopiridol [3]; 1 µM
  GR value: -0.465 GR
[4]; 0.001 µM
  GR value: 0.682 GR
[4]; 0.003162 µM
  GR value: 0.508 GR
[4]; 0.01 µM
  GR value: 0.42 GR
[4]; 0.03162 µM
  GR value: 0.344 GR
[4]; 0.1 µM
  GR value: 0.305 GR
[4]; 0.3162 µM
  GR value: 0.272 GR
[4]; 1 µM
  GR value: 0.262 GR
[4]; 3.162 µM
  GR value: 0.241 GR
[4]; 10 µM
  GR value: -0.088 GR
LEE011/Ribociclib; 0.001 µM
  GR value: 0.564 GR
LEE011/Ribociclib; 0.003162 µM
  GR value: 0.501 GR
LEE011/Ribociclib; 0.01 µM
  GR value: 0.497 GR
LEE011/Ribociclib; 0.03162 µM
  GR value: 0.461 GR
LEE011/Ribociclib; 0.1 µM
  GR value: 0.494 GR
LEE011/Ribociclib; 0.3162 µM
  GR value: 0.422 GR
LEE011/Ribociclib; 1 µM
  GR value: 0.473 GR
LEE011/Ribociclib; 3.162 µM
  GR value: 0.48 GR
LEE011/Ribociclib; 10 µM
  GR value: 0.484 GR
[5]; 0.0001 µM
  GR value: 0.963 GR
[5]; 0.0003162 µM
  GR value: 0.894 GR
[5]; 0.001 µM
  GR value: 1 GR
[5]; 0.003162 µM
  GR value: 0.997 GR
[5]; 0.01 µM
  GR value: 0.865 GR
[5]; 0.03162 µM
  GR value: -0.169 GR
[5]; 0.1 µM
  GR value: -0.503 GR
[5]; 0.3162 µM
  GR value: -0.612 GR
[5]; 1 µM
  GR value: -0.649 GR
